Data published in patent US9676782B2, “Substituted pyrazolo[1,5-a]pyrazines as negative allosteric modulators of metabotropic glutamate receptor 3” (Vanderbilt University, priority 2014, dated 2017).
Like-named read-outs stand apart in the source and are kept apart here.

Tests used:
rat mGlu3 = rat mGlu3 (Rattus norvegicus (Rat), UniProt P31422); assay: mGlu3 Ca2+ flux assay; assay type: cell-based; conditions: for remaining activity at 30 µM: amplitude of response at 30 μM test compound as % of maximal response to glutamate, read-out: rat mGlu3 Glu max (%); for mGlu3 Glu max: response at 30 μM compound as percentage of maximal glutamate response
Chain of rat mGlu3 (P31422 23-879): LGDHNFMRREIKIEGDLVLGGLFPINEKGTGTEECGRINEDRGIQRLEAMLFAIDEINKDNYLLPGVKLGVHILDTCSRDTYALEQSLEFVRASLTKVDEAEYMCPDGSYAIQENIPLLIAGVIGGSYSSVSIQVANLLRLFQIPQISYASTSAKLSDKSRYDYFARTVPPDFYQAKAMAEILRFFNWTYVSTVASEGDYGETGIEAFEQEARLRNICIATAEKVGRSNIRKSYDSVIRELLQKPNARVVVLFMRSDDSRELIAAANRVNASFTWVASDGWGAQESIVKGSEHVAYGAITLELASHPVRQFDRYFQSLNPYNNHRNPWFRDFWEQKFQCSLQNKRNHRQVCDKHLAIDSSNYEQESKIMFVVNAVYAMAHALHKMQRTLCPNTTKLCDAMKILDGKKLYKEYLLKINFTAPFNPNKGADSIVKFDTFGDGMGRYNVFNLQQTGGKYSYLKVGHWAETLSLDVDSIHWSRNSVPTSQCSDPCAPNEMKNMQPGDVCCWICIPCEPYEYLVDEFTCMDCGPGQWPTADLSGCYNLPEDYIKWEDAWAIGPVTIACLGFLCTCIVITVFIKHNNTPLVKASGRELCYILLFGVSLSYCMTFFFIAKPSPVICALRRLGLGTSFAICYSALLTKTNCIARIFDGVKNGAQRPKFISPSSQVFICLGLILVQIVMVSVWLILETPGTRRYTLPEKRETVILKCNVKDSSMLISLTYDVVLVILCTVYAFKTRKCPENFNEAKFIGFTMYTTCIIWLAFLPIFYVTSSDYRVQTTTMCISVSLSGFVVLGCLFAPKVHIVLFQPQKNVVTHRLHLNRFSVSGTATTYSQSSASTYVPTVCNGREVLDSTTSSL
Procedure, shortened: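 This calcium mobilization assay used rat mGlu3 cells cultured overnight (37° C., 5% CO2) and read on the FDSS7000 after a 10 minute room-temperature incubation in 20 μL assay buffer. Each of 360 readings per well was divided by its initial value (F/F0). Potency came from fitting normalized responses against log concentration with an unconstrained 4 parameter logistic equation, weighting triplicate points equally.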

rat mGlu5 = rat mGlu5 (Rattus norvegicus (Rat), UniProt P31424); assay: mGlu5 Ca2+ flux assay; assay type: cell-based; conditions: for Emax at 30 µM: PAM, amplitude of response at 30 μM test compound as % of maximal response to glutamate, read-out: rat mGlu5 Glu max (%); for Fold selectivity (mGlu3 vs. mGlu5): ratio of rat mGlu5 EC50 or IC50 to rat mGlu3 IC50; for mGlu5 Glu max: response at 30 μM compound as percentage of maximal glutamate response
Chain of rat mGlu5 (P31424 21-1203): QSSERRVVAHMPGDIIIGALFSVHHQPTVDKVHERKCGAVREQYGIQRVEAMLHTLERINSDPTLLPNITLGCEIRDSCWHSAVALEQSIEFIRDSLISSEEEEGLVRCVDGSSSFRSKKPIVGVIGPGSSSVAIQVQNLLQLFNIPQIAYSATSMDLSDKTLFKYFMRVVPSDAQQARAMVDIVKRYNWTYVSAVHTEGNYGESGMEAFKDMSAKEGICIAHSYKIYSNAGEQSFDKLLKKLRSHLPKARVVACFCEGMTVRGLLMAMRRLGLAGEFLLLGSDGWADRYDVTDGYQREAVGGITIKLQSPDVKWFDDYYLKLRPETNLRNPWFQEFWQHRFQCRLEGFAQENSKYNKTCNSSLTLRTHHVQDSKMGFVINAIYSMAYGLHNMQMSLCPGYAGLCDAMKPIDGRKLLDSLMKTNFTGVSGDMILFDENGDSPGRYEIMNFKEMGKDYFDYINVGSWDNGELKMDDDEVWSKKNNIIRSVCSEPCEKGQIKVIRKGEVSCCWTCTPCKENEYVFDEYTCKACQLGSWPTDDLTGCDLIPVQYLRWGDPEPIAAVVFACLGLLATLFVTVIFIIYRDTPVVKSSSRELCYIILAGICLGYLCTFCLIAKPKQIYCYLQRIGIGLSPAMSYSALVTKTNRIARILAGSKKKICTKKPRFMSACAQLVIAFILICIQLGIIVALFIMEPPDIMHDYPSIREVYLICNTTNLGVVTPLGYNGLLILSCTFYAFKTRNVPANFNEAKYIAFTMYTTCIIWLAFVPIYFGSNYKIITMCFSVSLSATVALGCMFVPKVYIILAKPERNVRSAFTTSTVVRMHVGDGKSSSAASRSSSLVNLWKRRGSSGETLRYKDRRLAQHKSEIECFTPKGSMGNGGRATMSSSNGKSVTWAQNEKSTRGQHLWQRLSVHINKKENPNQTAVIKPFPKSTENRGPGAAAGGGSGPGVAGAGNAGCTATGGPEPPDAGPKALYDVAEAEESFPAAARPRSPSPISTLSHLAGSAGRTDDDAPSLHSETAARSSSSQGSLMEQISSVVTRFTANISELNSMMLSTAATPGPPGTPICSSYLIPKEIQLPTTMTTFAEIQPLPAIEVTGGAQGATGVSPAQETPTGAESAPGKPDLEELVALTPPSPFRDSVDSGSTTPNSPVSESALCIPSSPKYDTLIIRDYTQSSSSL
Procedure, shortened: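 Ca2+ flux read kinetically (FDSS7000) after overnight culture at 37° C/5% CO2 and a 5 min room-temperature buffer step following dye removal. Signals expressed per well as F/F0 and normalized to peak glutamate response; EC50 fitted by free 4-parameter logistic, three replicates per concentration equally weighted.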

[1] = NAM potency, decrease of glutamate EC80 response, >30,000 = no measurable activity, >10,000 = no plateau, read-out: rat mGlu3 IC50
[2] = read-out: rat mGlu5 EC50 or IC50

Row | SMILES | IC50 (rat mGlu3; [1]) | remaining activity at 30 µM (rat mGlu3) | Emax at 30 µM (rat mGlu5) | Fold selectivity (mGlu3 vs. mGlu5) (rat mGlu5) | EC50 (rat mGlu5; [2]) | other results
1 | C[C@H]1CN(c2ccc(F)cc2)C(=O)c2cc(CNc3cccc(F)c3F)nn21 [Compound 69, (S)-2-(((2,3-difluorophenyl)amino)methyl)-5-(4-fluorophenyl)-7-methyl-6,7-dihydropyrazolo[1,5-a]pyrazin-4(5H)-one] | 2220 nM | 2.19% | 89.1% | 2.59 | 5.75 µM | 
2 | C[C@@H]1CN(c2ccc(F)cc2)C(=O)c2cc(CNc3ccccc3)nn21 [Compound 40, (R)-5-(4-fluorophenyl)-7-methyl-2-((phenylamino)methyl)-6,7-dihydropyrazolo[1,5-a]pyrazin-4(5H)-one] | 1380 nM | 5.15% | 34.4% | 3.49 | 4.81 µM | 
3 | COc1ccc(N(C)Cc2cc3n(n2)CCN(c2cccc(F)c2)C3=O)cc1 [Compound 101, 5-(3-fluorophenyl)-2-(((4-methoxyphenyl)(methyl)amino)methyl)-6,7-dihydropyrazolo[1,5-a]pyrazin-4(5H)-one] | 783 nM | 1.57% |  | >38 | > 30 µM | 
4 | CN(Cc1cc2n(n1)CCN(c1ccc(F)cc1)C2=O)c1ccc(Br)cc1 [Compound 91, 2-(((4-bromophenyl)(methyl)amino)methyl)-5-(4-fluorophenyl)-6,7-dihydropyrazolo[1,5-a]pyrazin-4(5H)-one] | 592 nM | 2.53% |  | >50 | > 30 µM | 
5 | COc1ccc(N(C)Cc2cc3n(n2)CCN(c2ccc(Cl)cc2F)C3=O)cc1 [Compound 125, 5-(4-chloro-2-fluorophenyl)-2-(((4-methoxyphenyl)(methyl)amino)methyl)-6,7-dihydropyrazolo[1,5-a]pyrazin-4(5H)-one] | 1380 nM | 1.47% |  | >21 | > 30 µM | 
6 | O=C1c2cc(CNc3cccc(F)c3)nn2CCN1c1ccc(F)cc1 [drawing 31 X = NH] |  |  |  |  |  | IC50 (rat mGlu3; Table 2 compounds with X = NH, read-out: mGlu3 IC50): 1040 nM; mGlu3 Glu max (rat mGlu3; Table 2 compounds with X = NH): 1%; EC50 (rat mGlu5; Table 2 compounds with X = NH, read-out: mGlu5 EC50): 2.21 µM; mGlu5 Glu max (rat mGlu5; Table 2 compounds with X = NH): 99%
7 | Cc1cccc(NCc2cc3n(n2)[C@@H](C)CN(c2ccc(F)cc2)C3=O)c1 [Compound 51, (S)-5-(4-fluorophenyl)-7-methyl-2-((m-tolylamino)methyl)-6,7-dihydropyrazolo[1,5-a]pyrazin-4(5H)-one] | 3010 nM | 3.21% | 86.2% | 2.53 | 7.61 µM | 
8 | COc1cccc(NCc2cc3n(n2)CCN(c2ccc(F)cc2)C3=O)c1 [Compound 10, 5-(4-fluorophenyl)-2-(((3-methoxyphenyl)amino)methyl)-6,7-dihydropyrazolo[1,5-a]pyrazin-4(5H)-one] | 1780 nM | 2.01% |  | >16 | > 30 µM | 
9 | C[C@@H]1CN(c2ccc(F)cc2)C(=O)c2cc(CNc3cccc(Cl)c3)nn21 [Compound 48, (R)-2-(((3-chlorophenyl)amino)methyl)-5-(4-fluorophenyl)-7-methyl-6,7-dihydropyrazolo[1,5-a]pyrazin-4(5H)-one] |  | 1.63% | 88.8% | >6.0 | > 10 µM | IC50 (rat mGlu3; read-out: rat mGlu3 IC50): 1650 nM
10 | CN(Cc1cc2n(n1)CCN(c1ccc(F)cc1)C2=O)c1ccc(F)cc1 [Compound 89, 5-(4-fluorophenyl)-2-(((4-fluorophenyl)(methyl)amino)methyl)-6,7-dihydropyrazolo[1,5-a]pyrazin-4(5H)-one] | 467 nM | 1.29% |  | >64 | > 30 µM | 
11 | O=C1c2cc(CNc3cccc(F)c3F)nn2CCN1c1ccc(F)cc1 [Compound 27, 2-(((2,3-difluorophenyl)amino)methyl)-5-(4-fluorophenyl)-6,7-dihydropyrazolo[1,5-a]pyrazin-4(5H)-one] | 586 nM | 2.82% | 90.8% | 4.06 | 2.38 µM | 
12 | COc1ccc(N(C)Cc2cc3n(n2)CCN(c2cccc(Cl)c2F)C3=O)cc1 [Compound 135, 5-(3-chloro-2-fluorophenyl)-2-(((4-methoxyphenyl)(methyl)amino)methyl)-6,7-dihydropyrazolo[1,5-a]pyrazin-4(5H)-one] | 1210 nM | 7.26% |  | >24 | > 30 µM | 
13 | N#Cc1ccc(NCc2cc3n(n2)CCN(c2ccc(F)cc2)C3=O)cc1 [Compound 18, 4-(((5-(4-fluorophenyl)-4-oxo-4,5,6,7-tetrahydropyrazolo[1,5-a]pyrazin-2-yl)methyl)amino)benzonitrile] | 4780 nM | 1.71% |  | >6.2 | > 30 µM | 
14 | COc1ccc(N(C)Cc2cc3n(n2)CCN(c2ccc(OC)cc2)C3=O)cc1 [Compound 114, 5-(4-methoxyphenyl)-2-(((4-methoxyphenyl)(methyl)amino)methyl)-6,7-dihydropyrazolo[1,5-a]pyrazin-4(5H)-one] | 1370 nM | 1.7% |  | >21 | > 30 µM | 
15 | C[C@H]1CN(c2ccc(F)cc2)C(=O)c2cc(CNc3ccc(F)cc3)nn21 [Compound 57, (S)-5-(4-fluorophenyl)-2-(((4-fluorophenyl)amino)methyl)-7-methyl-6,7-dihydropyrazolo[1,5-a]pyrazin-4(5H)-one] | 2320 nM | 0.96% | 56.7% | 2.38 | 5.53 µM | 
16 | CN(Cc1cc2n(n1)CCN(c1ccc(F)cc1)C2=O)c1ccccc1F [Compound 83, 5-(4-fluorophenyl)-2-(((2-fluorophenyl)(methyl)amino)methyl)-6,7-dihydropyrazolo[1,5-a]pyrazin-4(5H)-one] | 876 nM | -0.98% |  | >34 | > 30 µM | 
17 | COc1ccc(N(C)Cc2cc3n(n2)CCN(c2ccc(Cl)c(F)c2)C3=O)cc1 [Compound 136, 5-(4-chloro-3-fluorophenyl)-2-(((4-methoxyphenyl)(methyl)amino)methyl)-6,7-dihydropyrazolo[1,5-a]pyrazin-4(5H)-one] | 1270 nM | 2.43% |  | >23 | > 30 µM | 
18 | O=C1c2cc(COc3ccc(F)cc3)nn2CCN1c1ccc(F)cc1 [drawing 32 X = O, reference compound] |  |  |  |  |  | IC50 (rat mGlu3; Table 2 compounds with X = O, read-out: mGlu3 IC50): 108 nM; mGlu3 Glu max (rat mGlu3; Table 2 compounds with X = O): 1%; EC50 (rat mGlu5; Table 2 compounds with X = O, read-out: mGlu5 EC50): 0.106 µM; mGlu5 Glu max (rat mGlu5; Table 2 compounds with X = O): 71%
19 | COc1ccc(N(C)Cc2cc3n(n2)CCN(c2ccc(F)c(Cl)c2)C3=O)cc1 [Compound 133, 5-(3-chloro-4-fluorophenyl)-2-(((4-methoxyphenyl)(methyl)amino)methyl)-6,7-dihydropyrazolo[1,5-a]pyrazin-4(5H)-one] | 1210 nM | 2.13% |  | >24 | > 30 µM | 
20 | O=C1c2cc(CNc3cc(F)ccc3F)nn2CCN1c1ccc(F)cc1 [Compound 29, 2-(((2,5-difluorophenyl)amino)methyl)-5-(4-fluorophenyl)-6,7-dihydropyrazolo[1,5-a]pyrazin-4(5H)-one] | 508 nM | 2.45% | 87.5% | 3.23 | 1.64 µM | 
21 | O=C1c2cc(CNc3ccccc3F)nn2CCN1c1ccc(F)cc1 [Compound 3, 5-(4-fluorophenyl)-2-(((2-fluorophenyl)amino)methyl)-6,7-dihydropyrazolo[1,5-a]pyrazin-4(5H)-one] | 944 nM | 1.73% | 95.7% | 2.62 | 2.47 µM | 
22 | CC(Nc1ccc(Cl)cc1)c1cc2n(n1)CCN(c1ccc(F)cc1)C2=O (stereo not drawn) [Compound 172, 2-(1-((4-chlorophenyl)amino)ethyl)-5-(4-fluorophenyl)-6,7-dihydropyrazolo[1,5-a]pyrazin-4(5H)-one] | 1550 nM | 1.29% |  | >19 | > 30 µM | 
23 | C[C@H]1CN(c2ccc(F)cc2)C(=O)c2cc(CNc3cc(F)cc(F)c3)nn21 [Compound 74, (S)-2-(((3,5-difluorophenyl)amino)methyl)-5-(4-fluorophenyl)-7-methyl-6,7-dihydropyrazolo[1,5-a]pyrazin-4(5H)-one] | 2350 nM | -2.19% | 59.3% | >4.2 | > 10 µM | 
24 | O=C1c2cc(CNc3ccc(OC(F)F)cc3F)nn2CCN1c1ccc(F)c(F)c1 [Compound 145, 2-(((4-(difluoromethoxy)-2-fluorophenyl)amino)methyl)-5-(3,4-difluorophenyl)-6,7-dihydropyrazolo[1,5-a]pyrazin-4(5H)-one] | 800 nM | 2.55% |  | >37 | > 30 µM | 
